Data published in patent US8273769B2, “Phenoxy acetic acid derivatives” (Merck Serono SA, priority 2009, dated 2012).

Experiments:
[1] = test system: eosinophils in human whole blood; assay: PGD2-induced eosinophil cell shape assay in human whole blood; assay type: cell-based; conditions: 10 nM PGD2 final, flow cytometry
Procedure: The Compounds of Formula (I) were diluted in dimethylsulphoxide so that the total volume of dimethylsulfoxide was kept constant at 2% dimethylsulphoxide (Me2SO). Serial dilutions of 200 μM to 0.09 μM were prepared. Samples of 90 μl of human blood from healthy volunteers (Centre de Transfusion Sanguine de Genève) were pre-incubated in polypropylene Falcon tubes (BD 352063) for 20 minutes in a water bath at 37° C. with 10 μl of diluted compounds. For CRTH2 activation, 100 μl PGD2 (Cayman 12010) at 20 nM was added (10 nM final) to each tube and cells were maintained at 37° C. For negative control cells were treated with PBS. After 10 minutes, cell activation was stopped with 120 μl Formaldehyde 10% (4% final, Fluka 41650) and cells were rested for 10 minutes at room temperature. Fixed cells were transferred into polypropylene tubes and then treated for 1 hour in a water bath at 37° C. with 2 ml of Triton-Surfact-Amps X-100 (Pierce 28314) at 0.166% (0.13% Triton final). After several washes with PBS (red cells lysed progressively during washes, two washes are necessary), cells were analyzed by flow cytometry on a FACSCalibur. In one embodiment, the compounds of Formula (I) of the present invention are capable of blocking the cell shape change of eosinophils induced by PGD2 in Whole Blood.

[2] = molecular target: T1, CRTH2 (Homo sapiens, UniProt Q9Y5Y4); assay: Radioligand binding Scintillation Proximity Assay ([3H]PGD2, hCRTH2-CHO cell membranes); set-up: host or cells: CHO cells; conditions: 1.5 nM [3H]PGD2, hCRTH2-CHO cell membranes, SPA
T1 sequence (Q9Y5Y4 1-395): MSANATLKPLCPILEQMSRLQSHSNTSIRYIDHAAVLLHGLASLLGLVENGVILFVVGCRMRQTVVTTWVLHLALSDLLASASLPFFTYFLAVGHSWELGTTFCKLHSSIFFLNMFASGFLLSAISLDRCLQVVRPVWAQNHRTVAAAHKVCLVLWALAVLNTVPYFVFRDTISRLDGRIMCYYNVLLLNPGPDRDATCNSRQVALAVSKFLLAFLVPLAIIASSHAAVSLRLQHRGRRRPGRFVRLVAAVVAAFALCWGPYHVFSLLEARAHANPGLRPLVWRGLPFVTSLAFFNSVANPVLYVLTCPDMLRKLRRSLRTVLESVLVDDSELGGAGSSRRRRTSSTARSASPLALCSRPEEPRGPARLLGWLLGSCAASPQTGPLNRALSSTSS
Outline: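 SPA competition binding at room temperature, 90 min with agitation: 1.5 nM [3H]PGD2, 10-50 μg/ml hCRTH2-CHO membrane protein, WGA SPA beads, HEPES pH 7.4 with 10 mM MnCl2, 1% DMSO. Non-specific binding defined with 10 μM PGD2; scintillation counting.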

[3] = test system: FITC induced contact hypersensitivity in mice; assay: FITC 1 week model (FITC induced contact hypersensitivity, ear swelling); assay type: in vivo, Balb/C mice; conditions: oral gavage, 24 h after challenge
Description: Fluorescein isothiocyanate (FITC) induced contact hypersensitivity (CHS) is a commonly used model for atopic dermatitis (AD). The hapten FITC is a small molecule that is able to elicit an immune response only when attached to a larger carrier such as a protein. It is reactive towards e-amino groups (lysine). The immune response to FITC sensitization and challenge is Th2 cytokine driven (IL-4, IL-5, IL-6, IL-10 and IL-13) and associated with elevated serum IgE levels. The skin inflammation at the site of the challenge is characterized by edema and eosinophil infiltrations.
Female 9 week old Balb/C mice were sensitized on days 0 and 1 with 0.5% FITC in acetone/dibuthylphtalate (A/DBP). One group (sham) was sensitized with A/DBP alone. On day 6 all the mice including the sham group were challenged on the right ear (inner and outer surface) with 0.5% FITC in A/DBP. The mice were treated with the compounds via oral gavage 1 h before and 7 h after the challenge. The baseline ear thickness was measured before the challenge and 24 h after the challenge. At the end of the experiment (24 h after the challenge) the mice were sacrificed. Serum and plasma samples were taken. The challenged ear was excised and stored at −80° C. Compounds of Formula (I) of the present invention were tested at 3, 10 and 30 mg/Kg.

Row | Compound | IC50 [1] [nM] | IC50 [2] [nM] | % inhibition of ear swelling (mean ± s.e.m.) ([3]; dose 3 mg/kg) [%] | % inhibition of ear swelling (mean ± s.e.m.) ([3]; dose 10 mg/kg) [%] | % inhibition of ear swelling (mean ± s.e.m.) ([3]; dose 30 mg/kg) [%]
1 | CCCS(=O)(=O)c1cccc(C#Cc2cc(Cl)ccc2OCC(=O)O)c1 [Example 17, (4-chloro-2-{[3-(propylsulfonyl)phenyl]ethynyl}phenoxy)acetic acid] | 150 | 10 | – | – | –
2 | CN(C)S(=O)(=O)c1cncc(C#Cc2cc(Cl)ccc2OCC(=O)O)c1 [Example 35, [4-chloro-2-({5-[(dimethylamino)sulfonyl]pyridin-3-yl}ethynyl)phenoxy]acetic acid] | 289 | 55 | – | – | –
3 | CCCS(=O)(=O)c1ccc(C)c(C#Cc2cc(Cl)ccc2OCC(=O)O)c1 [Example 38, (4-chloro-2-{[2-methyl-5-(propylsulfonyl)phenyl]ethynyl}phenoxy)acetic acid] | 81 | 5 | 23 ± 16 | 56 ± 12 | 52 ± 12
4 | CCCS(=O)(=O)c1ccc(F)c(C#Cc2cc(Cl)ccc2OCC(=O)O)c1 [Example 89, (4-chloro-2-{[2-fluoro-5-(propylsulfonyl)phenyl]ethynyl}phenoxy)acetic acid] | 23 | 6 | 36 ± 19 | 54 ± 16 | 48 ± 11
5 | CCCS(=O)(=O)c1ccc(Cl)c(C#Cc2cc(Cl)ccc2OCC(=O)O)c1 [Example 101, (4-chloro-2-{[2-chloro-5-(propylsulfonyl)phenyl]ethynyl}phenoxy)acetic acid] | 23 | 3 | – | – | –
6 | CC(C)S(=O)(=O)c1ccc(F)c(C#Cc2cc(Cl)ccc2OCC(=O)O)c1 [Example 102, (4-chloro-2-{[2-fluoro-5-(isopropylsulfonyl)phenyl]ethynyl}phenoxy)acetic acid] | 91 | 5 | – | – | –
7 | CC(C)S(=O)(=O)c1ccc(Cl)c(C#Cc2cc(Cl)ccc2OCC(=O)O)c1 [Example 103, (4-chloro-2-{[2-chloro-5-(isopropylsulfonyl)phenyl]ethynyl}phenoxy)acetic acid] | 67 | 4 | – | – | –
8 | CN(C)S(=O)(=O)c1ccc(F)c(C#Cc2cc(Cl)ccc2OCC(=O)O)c1 [Example 107, [4-chloro-2-({5-[(dimethylamino)sulfonyl]-2-fluorophenyl}ethynyl)phenoxy]acetic acid] | 23 | 4 | – | – | –
9 | O=C(O)COc1ccc(Cl)cc1C#Cc1ccc2c(c1)S(=O)(=O)c1ccccc1-2 [Example 154, {4-chloro-2-[(5,5-dioxidodibenzo[b,d]thien-3-yl)ethynyl]phenoxy}acetic acid] | – | 14 | 41 ± 9 | 49 ± 9 | 54 ± 17
